Where two headings read alike, the source gives them in different places.
Tested on: breast tumor cells MDA-MB-436
Assay: MDA-MB-436 cell activity test (CellTiter-Glo, 7 days)
Assay type: cell-based, human
Settings: for IC50: 7 days incubation, read-out: IC50 (nM), MDA-MB-436 cell inhibitory activity; for inhibition at 10 µM: MDA-MB-436, MDA-MB-436 cells, read-out: Max inh. % 10 μM
Description: Breast tumor cells MDA-MB-436 were purchased from ATCC, the culture medium was Leibovitz's L-15+10% FBS, and the cells were cultured in a CO2-free incubator at 37° C. On day 1, the cells in the exponential growth phase were collected, and the cell suspension was adjusted to 4000 cells/135 μL with the culture medium. 135 μL of the cell suspension was added to each well of a 96-well cell culture plate and incubated overnight. On day 2, compounds at different concentrations were added, and the plate was placed in the incubator and incubated for 7 days. After the culture was completed, according to operation instructions for a CellTiter-Glo kit (Promega, G7573), 75 μL of CTG solution, which was already pre-melted and equilibrated to room temperature, was added to each well, and the mixture was uniformly mixed for 2 minutes using a microplate shaker. The plate was placed at room temperature for 10 minutes, and then […] signal values were determined using an Envision2104 plate reader (PerkinElmer). The inhibition rate was calculated using formula (1), where RLUcompound was the readout of the drug treated group, RLUcontrol was the average value of the solvent control group, and RLUblank was the average value of the cell-free well. The IC50 value was calculated using GraphPad Prism software.

[1] = Homo sapiens, MDA-MB-436, 168 h, MDA-MB-436 cells

Row | SMILES | IC50 [1] [nM] | inhibition at 10 µM (Homo sapiens, 10 μM) [%] | Max inh. % 10 μM (MDA-MB-436 cells, 10 μM) [%] | IC50 (MDA-MB-436 cells) [nM]
1 | CCc1cc2ncc(CN3CCN(c4ccc(C(=O)N[C@H]5C[C@H](Nc6ccc7c(c6)C(=O)N(C6CCC(=O)NC6=O)C7=O)C5)nc4)CC3)cc2[nH]c1=O (some centres unmarked) [Compound 38, N-((1r,3r)-3-((2-(2,6-dioxopiperidin-3-yl)-1,3-dioxoisoindolin-5-yl)amino)cyclobutyl)-5-(4-((7-ethyl-6-oxo-5,6-dihydro-1,5-naphthyridin-3-yl)methyl)piperazin-1-yl)picolinamide] | 12 | 77.1 |  | 
2 | CCc1cc2ncc(CN3CCN(c4ccc(C(=O)NC5CN(C(=O)CC67CC8C[C@H](C6)C[C@H](C8)C7)C5)nc4)CC3)cc2[nH]c1=O [Compound 13, N-(1-(2-((3R,5R)-adamantan-1-yl)acetyl)azetidin-3-yl)-5-(4-((7-ethyl-6-oxo-5,6-dihydro-1,5-naphthyridin-3-yl)methyl)piperazin-1-yl)picolinamide] | 5 | 89.7 |  | 
3 | CCc1cc2ncc(CN3CCN(c4ccc(C(=O)NC5CCN(c6cccc(NC7CCC(=O)NC7=O)c6)CC5)nc4)CC3)cc2[nH]c1=O (centres unmarked) [Compound 64] | 27.9 | 84.9 |  | 
4 | CCc1cc2ncc(CN3CC=C(c4ccc(C(=O)NC5CCN(c6ccc7c(c6)C(=O)N(C6CCC(=O)NC6=O)C7=O)CC5)nc4)CC3)cc2[nH]c1=O (centres unmarked) [Compound 49, N-(1-(2-(2,6-dioxopiperidin-3-yl)-1,3-dioxoisoindolin-5-yl)piperidin-4-yl)-1′-((7-ethyl-6-oxo-5,6-dihydro-1,5-naphthyridin-3-yl)methyl)-1′,2′,3′,6′-tetrahydro-[3,4′-bipyridine]-6-carboxamide] | 101 | 93.8 |  | 
5 | CCc1cc2ncc(CN3CCN(c4ccc(C(=O)NC5CC(Nc6ccc7c(c6)C(=O)N([C@@H]6CCC(=O)NC6=O)C7=O)C5)nc4)CC3)cc2[nH]c1=O (some centres unmarked) [Compound 42, N-((1r, 3r)-3-((2-(2,6-dioxopiperidin-3-yl)-1,3-dioxoisoindolin-5-yl)amino)cyclobutyl)-5-(4-((7-ethyl-6-oxo-5,6-dihydro-1,5-naphthyridin-3-yl)methyl)piperazin-1-yl)picolinamide] |  |  | 86.3 | 17
6 | CCc1cc2ncc(CN3CCN(c4ccc(C(=O)NC5CCN(C6CN(c7cccc8c7C(=O)N(C7CCC(=O)NC7=O)C8=O)C6)CC5)nc4)CC3)cc2[nH]c1=O (centres unmarked) [Compound 15, N-(1-(1-(2-(2,6-dioxopiperidin-3-yl)-1,3-dioxoisoindolin-4-yl)azetidin-3-yl)piperidin-4-yl)-5-(4-((7-ethyl-6-oxo-5,6-dihydro-1,5-naphthyridin-3-yl)methyl)piperazin-1-yl)picolinamide] | 25 | 87.2 |  | 
7 | CCc1cc2ncc(CN3CCN(c4ccc(C(=O)NC5CCN(c6ccc7c(c6)C(=O)N(C6CCC(=O)NC6=O)C7)CC5)nc4)CC3)cc2[nH]c1=O (centres unmarked) [Compound 48, N-(1-(2-(2,6-dioxopiperidin-3-yl)-3-oxoisoindolin-5-yl)piperidin-4-yl)-5-(4-((7-ethyl-6-oxo-5,6-dihydro-1,5-naphthyridin-3-yl)methyl)piperazin-1-yl)picolinamide] | 28 | 94.6 |  | 
8 | CCc1cc2ncc(CN3CCN(c4ccc(C(=O)N[C@H]5CCN(c6ccc7c(c6)C(=O)N(C6CCC(=O)NC6=O)C7=O)C5)nc4)CC3)cc2[nH]c1=O (stereo partly drawn) [Compound 21, N-((3S)-1-(2-(2,6-dioxopiperidin-3-yl)-1,3-dioxoisoindolin-5-yl)pyrrolidin-3-yl)-5-(4-((7-ethyl-6-oxo-5,6-dihydro-1,5-naphthyridin-3-yl)methyl)piperazin-1-yl)picolinamide] | 25 | 88.9 |  | 
9 | CCc1cc2ncc(CN3CCN(c4ccc(C(=O)NC5CN(c6cc7c(cc6F)C(=O)N(C6CCC(=O)NC6=O)C7=O)C5)nc4)CC3)cc2[nH]c1=O (centres unmarked) [Compound 17, N-(1-(2-(2,6-dioxopiperidin-3-yl)-6-fluoro-1,3-dioxoisoindolin-5-yl)azetidin-3-yl)-5-(4-((7-ethyl-6-oxo-5,6-dihydro-1,5-naphthyridin-3-yl)methyl)piperazin-1-yl)picolinamide] | 61 | 99 |  | 
10 | CCc1cc2ncc(CN3CCN(c4ccc(C(=O)N[C@H]5CC[C@@H](Nc6ccc7c(c6)C(=O)N(C6CCC(=O)NC6=O)C7=O)CC5)nc4)CC3)cc2[nH]c1=O (some centres unmarked) [Compound 27, N-((1s,4s)-4-((2-(-2,6-dioxopiperidin-3-yl)-1,3-dioxoisoindolin-5-yl)amino)cyclohexyl)-5-(4-((7-ethyl-6-oxo-5,6-dihydro-1,5-naphthyridin-3-yl)methyl)piperazin-1-yl)picolinamide] | 15 | 95.8 |  | 
11 | CCc1cc2ncc(CN3CC=C(c4ccc(C(=O)NC5CCN(c6cccc(NC7CCC(=O)NC7=O)c6)CC5)nc4)CC3)cc2[nH]c1=O (centres unmarked) [Compound 65, N-(1-(3-((2,6-dioxopiperidin-3-yl)amino)phenyl)piperidin-4-yl)-1′-((7-ethyl-6-oxo-5,6-dihydro-1,5-naphthyridin-3-yl)methyl)-1′,2′,3′,6′-tetrahydro-[3,4′-bipyridine]-6-carboxamide] | 39.5 | 76.8 |  | 
12 | CCc1cc2ncc(CN3CCN(c4ccc(C(=O)N[C@H]5C[C@H](Oc6ccc7c(c6)C(=O)N(C6CCC(=O)NC6=O)C7=O)C5)nc4)CC3)cc2[nH]c1=O (some centres unmarked) [Compound 59, N-((1r,3r)-3-((2-(2,6-dioxopiperidin-3-yl)-1,3-dioxoisoindolin-5-yl)oxy)cyclobutyl)-5-(4-((7-ethyl-6-oxo-5,6-dihydro-1,5-naphthyridin-3-yl)methyl)piperazin-1-yl)picolinamide] | 38 | 81.7 |  | 
13 | CCc1cc2ncc(CN3CCN(c4ccc(C(=O)NC5CCN(c6cccc7c6C(=O)N(C6CCC(=O)NC6=O)C7=O)CC5)nc4)CC3)cc2[nH]c1=O (centres unmarked) [Compound 19, N-(1-(2-(2,6-dioxopiperidin-3-yl)-1,3-dioxoisoindolin-4-yl)piperidin-4-yl)-5-(4-((7-ethyl-6-oxo-5,6-dihydro-1,5-naphthyridin-3-yl)methyl)piperazin-1-yl)picolinamide] | 21 | 90.3 |  | 
14 | CCc1cc2ncc(CN3CCN(c4ccc(C(=O)NC5CC(Oc6ccc7c(c6)C(=O)N(C6CCC(=O)NC6=O)C7=O)C5)nc4)CC3)cc2[nH]c1=O (centres unmarked) [Compound 60, N-((1s,3s)-3-((2-(2,6-dioxopiperidin-3-yl)-1,3-dioxoisoindolin-5-yl)oxy)cyclobutyl)-5-(4-((7-ethyl-6-oxo-5,6-dihydro-1,5-naphthyridin-3-yl)methyl)piperazin-1-yl)picolinamide] | 33 | 82 |  | 
15 | CCc1cc2ncc(CN3CCN(c4ccc(C(=O)NC5CN(c6cccc7c6C(=O)N(C6CCC(=O)NC6=O)C7=O)C5)nc4)CC3)cc2[nH]c1=O (centres unmarked) [Compound 16, N-(1-(2-(2,6-dioxopiperidin-3-yl)-1,3-dioxoisoindolin-4-yl)azetidin-3-yl)-5-(4-((7-ethyl-6-oxo-5,6-dihydro-1,5-naphthyridin-3-yl)methyl)piperazin-1-yl)picolinamide] | 15 | 78.8 |  | 
16 | CCc1cc2ncc(CN3CCN(c4ccc(C(=O)NC5CN(c6ccc7c(c6)C(=O)N(C6CCC(=O)NC6=O)C7=O)C5)nc4)CC3)cc2[nH]c1=O (centres unmarked) [Compound 11, N-(1-(2-(2,6-dioxopiperidin-3-yl)-1,3-dioxoisoindolin-5-yl)azetidin-3-yl)-5-(4-((7-ethyl-6-oxo-5,6-dihydro-1,5-naphthyridin-3-yl)methyl)piperazin-1-yl)picolinamide] | 2 | 99.8 |  | 
17 | Cc1nc2ccc(CN3CCN(c4ccc(C(=O)NC5CCN(c6cccc(N7CCC(=O)NC7=O)c6)CC5)nc4F)CC3)c(F)c2[nH]c1=O [Compound 71, N-(1-(3-(2,4-dioxotetrahydropyrimidin-1(2H)-yl)phenyl)piperidin-4-yl)-6-fluoro-5-(4-((5-fluoro-2-methyl-3-oxo-3,4-dihydroquinoxalin-6-yl)methyl)piperazin-1-yl)picolinamide] | 73.4 | 99 |  | 
18 | CCc1cc2ncc(CN3CC=C(c4ccc(C(=O)N[C@H]5CCN(c6ccc7c(c6)C(=O)N(C6CCC(=O)NC6=O)C7=O)C5)nc4)CC3)cc2[nH]c1=O (stereo partly drawn) [Compound 53, N-((3S)-1-(2-(2,6-dioxopiperidin-3-yl)-1,3-dioxoisoindolin-5-yl)pyrrolidin-3-yl)-1′-((7-ethyl-6-oxo-5,6-dihydro-1,5-naphthyridin-3-yl)methyl)-1′,2′,3′,6′-tetrahydro-[3,4′-bipyridine]-6-carboxamide] | 58 | 98 |  | 
19 | CCc1cc2ncc(CN3CC=C(c4ccc(C(=O)NC5CCN(c6cccc(N7CCC(=O)NC7=O)c6)CC5)nc4)CC3)cc2[nH]c1=O [Compound 63, N-(1-(3-(2,4-dioxotetrahydropyrimidin-1(2H)-yl)phenyl)piperidin-4-yl)-1′-((7-ethyl-6-oxo-5,6-dihydro-1,5-naphthyridin-3-yl)methyl)-1′,2′,3′,6′-tetrahydro-[3,4′-bipyridine]-6-carboxamide] | 16.1 | 83.1 |  | 
